Reference: ChEMBL document CHEMBL1124736, “Novel quinuclidine-based ligands for the muscarinic cholinergic receptor” (J Med Chem, 1990)

Key:
[1] = target: T1, Muscarinic acetylcholine receptor (Rattus norvegicus) (UniProt P08482+P08483+P08485+P08911+P10980)
Description: In vitro displacement of [3H]OXO-M from muscarinic acetylcholine receptor in rat cortical homogenates

[2] = Log of the ratio of Kapp([3H]-NMS)/Kapp([3H]-OXO-M) was determined
[3] = target: T1, Muscarinic acetylcholine receptor (Rattus norvegicus); remark: listed apart in the source
Description: In vitro for its ability to displace [3H]NMS from muscarinic acetylcholine receptor in rat cortical homogenates

[4] = target: T1, Muscarinic acetylcholine receptor (Rattus norvegicus); experiment: Compound was tested in vitro for its ability to displace [3H]OXO-M from Muscarinic acetylcholine receptor in rat cortical homogenates

Structure (SMILES) | K app [1] [µM] | Log ratio [2] | K app [3] [µM] | K app [4] [µM]
Cc1cc(C2CN3CCC2CC3)on1 (configuration not stated) | 0.036 | 1.59 | 1.4 | –
Cc1noc(C2=CN3CCC2CC3)n1 | 0.4 | – | 15 | –
Cc1nnc(C2CN3CCC2CC3)o1 (configuration not stated) | 0.06 | 2.11 | 7.5 | –
CC(=O)Nc1noc(C2CN3CCC2CC3)n1 (configuration not stated) | 0.12 | – | 23 | –
Cc1coc(C2CN3CCC2CC3)c1 (configuration not stated) | 0.057 | 1.18 | 1.4 | –
N#Cc1noc(C2CN3CCC2CC3)n1 (configuration not stated) | 0.043 | – | 2.6 | –
Clc1noc(C2CN3CCC2CC3)n1 (configuration not stated) | 0.00048 | 2.6 | 0.19 | –
Nc1noc(C2CN3CCC2CC3)n1 (configuration not stated) | 0.0005 | 3.08 | – | –
CNc1noc(C2CN3CCC2CC3)n1 (configuration not stated) | 0.053 | – | 2 | –
Cc1noc(C2=CCCN(C)C2)n1 | 0.0046 | – | 1.8 | –
c1ccc(Cc2noc(C3CN4CCC3CC4)n2)cc1 (configuration not stated) | 0.021 | – | 0.07 | –
CN(C)c1noc(C2CN3CCC2CC3)n1 (configuration not stated) | 0.021 | – | 0.2 | –
Cc1ccc(C2CN3CCC2CC3)o1 (configuration not stated) | 0.013 | 1.28 | 0.25 | –
COc1noc(C2CN3CCC2CC3)n1 (configuration not stated) | 0.014 | – | 0.52 | –
C[N+]12CCC(CC1)C(c1nc(N)no1)C2 (configuration not stated) | 0.079 | – | 6.6 | –
Cc1cnc(C2CN3CCC2CC3)o1 (configuration not stated) | 0.04 | – | 0.73 | –
Brc1noc(C2CN3CCC2CC3)n1 (configuration not stated) | 0.0011 | – | 0.19 | –
OC(c1ccccc1)(c1ccccc1)c1noc(C2CN3CCC2CC3)n1 (configuration not stated) | 6.7e-05 | – | 0.00012 | –
NC(=O)c1noc(C2CN3CCC2CC3)n1 (configuration not stated) | 1.7 | – | 39 | –
CCc1noc(C2CN3CCC2CC3)n1 (configuration not stated) | 0.0056 | – | 0.096 | –
COC(=O)C1CN2CCC1CC2 (configuration not stated) | 0.023 | – | 8.6 | –
Cc1noc(C2CN3CCC2CC3)n1 (configuration not stated) | – | 2.69 | – | 0.0009
Cc1coc(C2CN3CCC2CC3)n1 (configuration not stated) | 0.027 | 1.72 | 1.4 | –
Cc1nc(C2CN3CCC2CC3)no1 (configuration not stated) | 0.054 | 1.73 | 2.9 | –
c1coc(C2CN3CCC2CC3)n1 (configuration not stated) | 0.038 | – | 6.7 | –
